Key:
Assay type in all cases: in vivo
[1] = tested on: Diamond Back Moth (Plutella xylostella); assay: Diamond back moth leaf-dip test on Chinese cabbage; conditions: read-out: mortality in comparison with untreated controls
Description: (§1) If not otherwise specified the test solutions were prepared as follow:
(§2) The active compound was dissolved at the desired concentration in a mixture of 1:1 (vol:vol) distilled water:acteon. The test solution was prepared the day it was used and in general at concentrations of […] (wt/vol).
Leaves of Chinese cabbage were dipped in test solution and air-dried. Treated leaves were placed in petri dished lined with moist filter paper. Mortality was recorded 24, 72, and 120 hours after treatment.

[2] = tested on: Mediterranean Fruitfly (Ceratitis capitata); assay: Mediterranean fruitfly microtiter plate diet test; conditions: 120 h, read-out: mortality in comparison with untreated controls
Description: For evaluating control of Mediterranean fruitfly (Ceratitis capitata) the test unit consisted of microtiter plates containing an insect diet and 50-80 C. capitata eggs.
(§3) The compounds were formulated using a solution containing 75% v/v water and 25% v/v DMSO. Different concentrations of formulated compounds were sprayed onto the insect diet at 5 μl, using a custom built micro atomizer, at two replications. After application, microtiter plates were incubated at about 28±1° C. and about 80±5% relative humidity for 5 days. Egg and larval mortality was then visually assessed.

[3] = tested on: Southern Armyworm (Spodoptera eridania); assay: Southern armyworm spray test on lima bean plants; conditions: 96 h, read-out: mortality in comparison with untreated controls
Description: (§4) The active compounds were formulated in cyclohexanone as a 10,000 ppm solution supplied in tubes. The tubes were inserted into an automated electrostatic sprayer equipped with an atomizing nozzle and served as stock solutions for which lower dilutions are made in 50% acetone:50% water (v/v). A nonionic surfactant (Kinetic®) was included in the solution at a volume of 0.01% (v/v).
Lima bean plants (variety Sieva) were grown 2 plants to a pot and selected for treatment at the 1st true leaf stage. Test solutions were sprayed onto the foliage by an automated electrostatic plant sprayer equipped with an atomizing spray nozzle. The plants were dried in the sprayer fume hood and then removed from the sprayer. Each pot was placed into perforated plastic bags with a zip closure. About 10 to 11 armyworm larvae were placed into the bag and the bags zipped closed. Test plants were maintained in a growth room at about 25° C. and about 20-40% relative humidity for 4 days, avoiding direct exposure to fluorescent light (24 hour photoperiod) to prevent trapping of heat inside the bags. Mortality and reduced feeding were assessed 4 days after treatment, compared to untreated control plants.

[4] = tested on: Tobacco Budworm (Heliothis virescens); assay: Tobacco budworm microtiter plate diet test; conditions: 120 h, read-out: mortality in comparison with untreated controls
Description: as §3, with “For evaluating control of tobacco budworm (Heliothis virescens) the test unit consisted of 96-well-microtiter plates containing an insect diet and 15-25 H. virescens eggs. The” for “The”, “at 10” for “at 5”, “plates are” for “plates were”, “mortality is” for “mortality was”

[5] = tested on: Boll Weevil (Anthonomus grandis); assay: Boll weevil microtiter plate diet test; conditions: 120 h, read-out: mortality in comparison with untreated controls
Description: as §3, with “For evaluating control of boll weevil (Anthonomus grandis) the test unit consisted of 24-well-microtiter plates containing an insect diet and 20-30 A. grandis eggs. The” for “The”, “at 20” for “at 5”, “about 23±1°” for “about 28±1°”, “about 50±5%” for “about 80±5%”

[6] = tested on: Vetch Aphid (Megoura viciae); assay: Vetch aphid leaf disk microtiter plate test; conditions: foliar, 120 h, read-out: mortality in comparison with untreated controls
Description: For evaluating control of vetch aphid (Megoura viciae) through contact or systemic means the test unit consisted of 24-well-microtiter plates containing broad bean leaf disks. The compounds were formulated using a solution containing 75% v/v water and 25% v/v DMSO. Different concentrations of formulated compounds were sprayed onto the leaf disks at 2.5 μl, using a custom built micro atomizer, at two replications. After application, the leaf disks were air-dried and 5-8 adult aphids were placed on the leaf disks inside the microtiter plate wells. The aphids were then allowed to suck on the treated leaf disks and incubated at about 23±1° C. and about 50±5% relative humidity for 5 days. Aphid mortality and fecundity was then visually assessed.

[7] = tested on: Silverleaf Whitefly (Bemisia argentifolii); assay: Silverleaf whitefly spray test on cotton plants; conditions: 72 h, read-out: mortality in comparison with untreated controls
Description: as §4, with “were” for “are”
Cotton plants at the cotyledon stage (one plant per pot) were sprayed by an automated electrostatic plant sprayer equipped with an atomizing spray nozzle. The plants were dried in the sprayer fume hood and then removed from the sprayer. Each pot was placed into a plastic cup and about 10 to 12 whitefly adults (approximately 3-5 days old) were introduced. The insects were collected using an aspirator and a nontoxic Tygon® tubing connected to a barrier pipette tip. The tip, containing the collected insects, was then gently inserted into the soil containing the treated plant, allowing insects to crawl out of the tip to reach the foliage for feeding. Cups were covered with a reusable screened lid. Test plants were maintained in a growth room at about 25° C. and about 20-40% relative humidity for 3 days, avoiding direct exposure to fluorescent light (24 hour photoperiod) to prevent trapping of heat inside the cup. Mortality was assessed 3 days after treatment, compared to untreated control plants.

[8] = tested on: Cowpea Aphid (Aphis craccivora); assay: Cowpea aphid spray test on potted cowpea plants; conditions: 500 ppm; population reduction assessed after 24, 72 and 120 hours
Description: as §1, §2
Potted cowpea plants colonized with approximately 100-150 aphids of various stages were sprayed after the pest population had been recorded. Population reduction was assessed after 24, 72, and 120 hours.

[9] = tested on: Orchid Thrips (Dichromothrips corbetti); assay: Orchid thrips floral-immersion test; conditions: 96 h, read-out: mortality in comparison with untreated controls
Description: Dichromothrips corbetti adults used for bioassay were obtained from a colony maintained continuously under laboratory conditions. For testing purposes, the test compound was diluted to a concentration of 300 ppm (wt compound: vol diluent) in a 1:1 mixture of acetone:water (vol:vol), plus 0.01% vol/vol Kinetic® surfactant.
Thrips potency of each compound was evaluated by using a floral-immersion technique. Plastic petri dishes were used as test arenas. All petals of individual, intact orchid flowers were dipped into treatment solution and allowed to dry. Treated flowers were placed into individual petri dishes along with 10-15 adult thrips. The petri dishes were then covered with lids. All test arenas were held under continuous light and a temperature of about 28° C. for duration of the assay. After 4 days, the numbers of live thrips was counted on each flower, and along inner walls of each petri dish. The level of thrips mortality was extrapolated from pre-treatment thrips numbers.

| Compound | mortality at 300 ppm [1] [%] | mortality at 300 ppm [3] [%] | mortality at 2500 ppm [4] [%] | mortality at 2500 ppm [5] [%] | further results |
| --- | --- | --- | --- | --- | --- |
| COC(=NO)c1ccc(C2=NOC(c3cc(Cl)cc(Cl)c3)(C(F)(F)F)C2)cc1C (single isomer, unassigned) [Compound 1-30, 4-[5-(3,5-Dichloro-phenyl)-5-trifluoromethyl-4,5-dihydro-isoxazol-3-yl]-N-hydroxy-2-methyl-benzimidic acid methyl ester] | ≥ 75 | ≥ 75 | ≥ 75 | ≥ 75 | mortality at 2500 ppm [2]: ≥ 75% |
| COC(=NO)c1ccc(C2=NOC(c3cc(Cl)cc(Cl)c3)(C(F)(F)F)C2)cc1C (single isomer, unassigned) [Compound 1-31, 4-[5-(3,5-Dichloro-phenyl)-5-trifluoromethyl-4,5-dihydro-isoxazol-3-yl]-N-hydroxy-2-methyl-benzimidic acid methyl ester] | – | – | – | – | mortality at 2500 ppm [6]: ≥ 75% |
| Cc1cc(C2=NOC(c3cc(Cl)cc(Cl)c3)(C(F)(F)F)C2)ccc1/C=N/OCC(=O)NCC(F)(F)F (centres unmarked) [Compound 1-9, 2-[1-{4-[5-(3,5-Dichloro-phenyl)-5-trifluoromethyl-4,5-dihydro-isoxazol-3-yl]-2-methyl-phenyl}-meth-(E)-ylideneaminooxy]-N-(2,2,2-trifluoro-ethyl)-acetamide] | ≥ 75 | ≥ 75 | ≥ 75 | ≥ 75 | – |
| Cc1cc(C2=NOC(c3cc(Cl)cc(Cl)c3)(C(F)(F)F)C2)ccc1/C=N/OCC(=O)O (centres unmarked) [Compound 1-12, [1-{4-[5-(3,5-Dichloro-phenyl)-5-trifluoromethyl-4,5-dihydro-isoxazol-3-yl]-2-methyl-phenyl}-meth-(E)-ylideneaminooxy]-acetic acid] | – | – | ≥ 75 | – | mortality at 300 ppm [7]: ≥ 75%; mortality at 2500 ppm [6]: ≥ 75% |
| Cc1cc(C2=NOC(c3cc(Cl)cc(Cl)c3)(C(F)(F)F)C2)ccc1/C=N/OCC(=O)OC(C)(C)C (centres unmarked) [Compound 1-13, [1-{4-[5-(3,5-Dichloro-phenyl)-5-trifluoromethyl-4,5-dihydro-isoxazol-3-yl]-2-methyl-phenyl}-meth-(E)-ylideneaminooxy]-acetic acid tert-butyl ester] | ≥ 75 | ≥ 75 | ≥ 75 | – | – |
| Cc1cc(C2=NOC(c3cc(Cl)cc(Cl)c3)(C(F)(F)F)C2)ccc1/C=N/OCC(=O)N1CCOCC1 (centres unmarked) [Compound 1-16] | – | – | – | – | mortality in comparison with untreated controls [8]: at least 75% |
| CC(=NO)c1ccc(C2=NOC(c3cc(Cl)cc(Cl)c3)(C(F)(F)F)C2)cc1C (centres unmarked) [Compound 1-17, 1-{4-[5-(3,5-Dichloro-phenyl)-5-trifluoromethyl-4,5-dihydro-isoxazol-3-yl]-2-methyl-phenyl}-ethanone oxime] | ≥ 75 | – | ≥ 75 | ≥ 75 | mortality at 300 ppm [9]: ≥ 75% |
| Cc1cc(C2=NOC(c3cc(Cl)cc(Cl)c3)(C(F)(F)F)C2)ccc1/C=N/NC(=O)c1ccccn1 (centres unmarked) [Compound 1-45, Pyridine-2-carboxylic acid [1-{4-[5-(3,5-dichloro-phenyl)-5-trifluoromethyl-4,5-dihydro-isoxazol-3-yl]-2-methyl-phenyl}-meth-(E)-ylidene]-hydrazide] | – | – | ≥ 75 | ≥ 75 | – |
| Cc1cc(C2=NOC(c3cc(Cl)cc(Cl)c3)(C(F)(F)F)C2)ccc1C(CC(C)C)=NO (centres unmarked) [Compound 1-55, 1-{4-[5-(3,5-Dichloro-phenyl)-5-trifluoromethyl-4,5-dihydro-isoxazol-3-yl]-2-methyl-phenyl}-3-methyl-butan-1-one oxime] | ≥ 75 | – | ≥ 75 | ≥ 75 | – |

Reference: patent US8722673B2, “Imine compounds for combating invertebrate pests” (BASF SE, priority 2008, dated 2014)
